Results: ChEMBL document CHEMBL5058644, “Data for DCP probe JNJ-39758979” (2022)

Columns and labels:
[1] = target: Adenosine receptor A3 (Homo sapiens) (UniProt P0DMS8); assay: A3 (h) CEREP panel; details: Compound concentration 1.0 uM
[2] = MT1 CEREP panel; details: Compound concentration 1.0 uM
[3] = target: Mitogen-activated protein kinase 8 (Homo sapiens) (UniProt P45983); assay: JNK1α1(h) Millipore kinase panel; details: Compound concentration 10.0 uM
[4] = target: Neuromedin-K receptor (Homo sapiens) (UniProt P29371); assay: NK3 (h) CEREP panel; details: Compound concentration 1.0 uM
[5] = target: Vasopressin V1a receptor (Homo sapiens) (UniProt P37288); assay: V1A (h) CEREP panel; details: Compound concentration 1.0 uM
[6] = target: Serine/threonine-protein kinase PLK3 (Homo sapiens) (UniProt Q9H4B4); assay: Plk3(h) Millipore kinase panel; details: Compound concentration 10.0 uM
[7] = target: Tyrosine-protein kinase SYK (Homo sapiens) (UniProt P43405); assay: Syk(h) Millipore kinase panel; details: Compound concentration 10.0 uM
[8] = target: Death-associated protein kinase 1 (Homo sapiens) (UniProt P53355); assay: DAPK1(h) Millipore kinase panel; details: Compound concentration 10.0 uM
[9] = target: Glycogen synthase kinase-3 alpha (Homo sapiens) (UniProt P49840); assay: GSK3α(h) Millipore kinase panel; details: Compound concentration 10.0 uM
[10] = target: Discoidin domain-containing receptor 2 (Homo sapiens) (UniProt Q16832); assay: DDR2(h) Millipore kinase panel; details: Compound concentration 10.0 uM
[11] = target: Galanin receptor type 2 (Homo sapiens) (UniProt O43603); assay: GAL2 (h) CEREP panel; details: Compound concentration 1.0 uM
Sequence of Galanin receptor type 2 (Homo sapiens) (O43603 whole entry): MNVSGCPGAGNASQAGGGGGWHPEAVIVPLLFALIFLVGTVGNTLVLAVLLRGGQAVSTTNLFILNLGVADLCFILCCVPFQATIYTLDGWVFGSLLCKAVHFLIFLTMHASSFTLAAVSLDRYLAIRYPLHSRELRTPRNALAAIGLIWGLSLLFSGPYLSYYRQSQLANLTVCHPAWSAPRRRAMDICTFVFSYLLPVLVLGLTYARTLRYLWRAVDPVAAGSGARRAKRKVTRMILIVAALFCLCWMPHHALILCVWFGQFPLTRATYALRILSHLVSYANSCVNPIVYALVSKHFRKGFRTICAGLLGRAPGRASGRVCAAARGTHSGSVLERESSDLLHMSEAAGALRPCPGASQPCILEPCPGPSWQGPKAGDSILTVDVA

[12] = target: Proto-oncogene tyrosine-protein kinase receptor Ret (Homo sapiens) (UniProt P07949); assay: Ret(h) Millipore kinase panel; details: Compound concentration 10.0 uM
[13] = BZD (central) CEREP panel; details: Compound concentration 1.0 uM
[14] = target: Serine/threonine-protein kinase WNK2 (Homo sapiens) (UniProt Q9Y3S1); assay: WNK2(h) Millipore kinase panel; details: Compound concentration 10.0 uM
[15] = organism: Homo sapiens; assay: CK2(h) Millipore kinase panel; details: Compound concentration 10.0 uM
[16] = target: Vasoactive intestinal polypeptide receptor 1 (Homo sapiens) (UniProt P32241); assay: VIP1 (h) (VPAC1) CEREP panel; details: Compound concentration 1.0 uM
[17] = target: Serine/threonine-protein kinase Sgk1 (Homo sapiens) (UniProt O00141); assay: SGK(h) Millipore kinase panel; details: Compound concentration 10.0 uM
Sequence of Serine/threonine-protein kinase Sgk1 (Homo sapiens) (O00141 whole entry): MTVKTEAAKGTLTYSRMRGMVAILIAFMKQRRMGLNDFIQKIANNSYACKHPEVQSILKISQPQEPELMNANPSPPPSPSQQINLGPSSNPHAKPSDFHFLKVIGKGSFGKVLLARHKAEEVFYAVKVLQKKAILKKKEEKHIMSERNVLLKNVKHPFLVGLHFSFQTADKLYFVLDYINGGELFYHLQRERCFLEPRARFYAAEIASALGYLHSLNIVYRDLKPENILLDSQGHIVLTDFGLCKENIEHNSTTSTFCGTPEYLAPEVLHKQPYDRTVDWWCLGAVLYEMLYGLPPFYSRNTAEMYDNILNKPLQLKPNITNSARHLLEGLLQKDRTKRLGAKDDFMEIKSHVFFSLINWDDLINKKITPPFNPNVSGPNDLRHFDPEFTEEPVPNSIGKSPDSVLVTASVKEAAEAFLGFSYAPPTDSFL

[18] = target: Nociceptin receptor (Homo sapiens) (UniProt P41146); assay: ORL1 (h) CEREP panel; details: Compound concentration 1.0 uM
Sequence of Nociceptin receptor (Homo sapiens) (P41146 whole entry): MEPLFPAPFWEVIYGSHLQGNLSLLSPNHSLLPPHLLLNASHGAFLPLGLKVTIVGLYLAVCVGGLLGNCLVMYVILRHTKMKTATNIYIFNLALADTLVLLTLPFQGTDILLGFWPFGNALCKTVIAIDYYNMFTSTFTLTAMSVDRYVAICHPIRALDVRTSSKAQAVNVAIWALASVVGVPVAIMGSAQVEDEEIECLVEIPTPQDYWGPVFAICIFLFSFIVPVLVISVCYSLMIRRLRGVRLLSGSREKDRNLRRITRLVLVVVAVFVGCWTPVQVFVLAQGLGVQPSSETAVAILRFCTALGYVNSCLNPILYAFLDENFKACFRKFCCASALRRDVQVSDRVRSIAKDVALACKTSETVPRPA

[19] = target: Serine/threonine-protein kinase STK11 (Homo sapiens) (UniProt Q15831); assay: LKB1(h) Millipore kinase panel; details: Compound concentration 10.0 uM
[20] = target: Adrenergic receptor alpha-2 (Homo sapiens) (UniProt P08913+P18825+P18089); assay: alpha 2 (non-selective) CEREP panel; details: Compound concentration 1.0 uM
[21] = target: Mu-type opioid receptor (Homo sapiens) (UniProt P35372); assay: mu (h) CEREP panel; details: Compound concentration 1.0 uM
Sequence of Mu-type opioid receptor (Homo sapiens) (P35372 whole entry): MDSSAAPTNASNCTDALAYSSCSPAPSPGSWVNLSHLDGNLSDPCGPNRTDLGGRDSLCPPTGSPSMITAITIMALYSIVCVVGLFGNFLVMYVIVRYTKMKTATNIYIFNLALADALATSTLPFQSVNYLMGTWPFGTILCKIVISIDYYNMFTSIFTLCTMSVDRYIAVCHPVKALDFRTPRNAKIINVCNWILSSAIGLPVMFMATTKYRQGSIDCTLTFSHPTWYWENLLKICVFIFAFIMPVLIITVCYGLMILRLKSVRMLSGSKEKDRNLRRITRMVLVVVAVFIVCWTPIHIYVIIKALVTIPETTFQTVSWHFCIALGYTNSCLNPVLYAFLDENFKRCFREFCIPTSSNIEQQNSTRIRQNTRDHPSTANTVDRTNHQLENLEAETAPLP

[22] = target: Serine/threonine-protein kinase DCLK2 (Homo sapiens) (UniProt Q8N568); assay: DCAMKL2(h) Millipore kinase panel; details: Compound concentration 10.0 uM
[23] = target: 5-hydroxytryptamine receptor 6 (Homo sapiens) (UniProt P50406); assay: 5-HT6 (h) (5-ht6) CEREP panel; details: Compound concentration 1.0 uM
[24] = target: ALK tyrosine kinase receptor (Homo sapiens) (UniProt Q9UM73); assay: ALK(h) Millipore kinase panel; details: Compound concentration 10.0 uM
[25] = target: C-X-C chemokine receptor type 2 (Homo sapiens) (UniProt P25025); assay: IL-8B (h) (CXCR2) CEREP panel; details: Compound concentration 1.0 uM
[26] = target: Protein kinase C alpha type (Homo sapiens) (UniProt P17252); assay: PKCα(h) Millipore kinase panel; details: Compound concentration 10.0 uM
[27] = target: Serine/threonine-protein kinase VRK2 (Homo sapiens) (UniProt Q86Y07); assay: VRK2(h) Millipore kinase panel; details: Compound concentration 10.0 uM
[28] = target: 5-hydroxytryptamine receptor 3A (Homo sapiens) (UniProt P46098); assay: 5-HT3 (h) CEREP panel; details: Compound concentration 1.0 uM
[29] = target: RAF proto-oncogene serine/threonine-protein kinase (Homo sapiens) (UniProt P04049); assay: c-RAF(h) Millipore kinase panel; details: Compound concentration 10.0 uM
[30] = target: Histamine H1 receptor (Homo sapiens) (UniProt P35367); assay: H1 (h) CEREP panel; details: Compound concentration 1.0 uM
[31] = target: 5-hydroxytryptamine receptor 5A (Homo sapiens) (UniProt P47898); assay: 5-HT5A (h) (5-ht5a) CEREP panel; details: Compound concentration 1.0 uM
[32] = target: Tyrosine-protein kinase ABL1 (Homo sapiens) (UniProt P00519); assay: Abl(h) Millipore kinase panel; details: Compound concentration 10.0 uM
[33] = target: Tyrosine-protein kinase JAK2 (Homo sapiens) (UniProt O60674); assay: JAK2(h) Millipore kinase panel; details: Compound concentration 10.0 uM
[34] = target: Ephrin type-A receptor 1 (Homo sapiens) (UniProt P21709); assay: EphA1(h) Millipore kinase panel; details: Compound concentration 10.0 uM
[35] = target: RAC-beta serine/threonine-protein kinase (Homo sapiens) (UniProt P31751); assay: PKBβ(h) Millipore kinase panel; details: Compound concentration 10.0 uM
[36] = target: Interleukin-1 receptor-associated kinase 1 (Homo sapiens) (UniProt P51617); assay: IRAK1(h) Millipore kinase panel; details: Compound concentration 10.0 uM
[37] = target: Adenosine receptor A1 (Homo sapiens) (UniProt P30542); assay: A1 (h) CEREP panel; details: Compound concentration 1.0 uM
Sequence of Adenosine receptor A1 (Homo sapiens) (P30542 whole entry): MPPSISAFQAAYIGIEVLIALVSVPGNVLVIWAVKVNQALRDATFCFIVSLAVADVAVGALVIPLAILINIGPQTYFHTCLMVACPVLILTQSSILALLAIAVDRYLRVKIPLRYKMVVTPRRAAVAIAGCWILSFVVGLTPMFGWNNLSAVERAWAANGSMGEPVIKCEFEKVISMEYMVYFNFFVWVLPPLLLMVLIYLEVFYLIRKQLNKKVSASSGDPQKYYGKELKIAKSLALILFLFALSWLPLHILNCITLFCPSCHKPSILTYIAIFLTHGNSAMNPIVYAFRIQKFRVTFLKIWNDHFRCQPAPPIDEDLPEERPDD

[38] = target: Serine/threonine-protein kinase 33 (Homo sapiens) (UniProt Q9BYT3); assay: STK33(h) Millipore kinase panel; details: Compound concentration 10.0 uM
[39] = target: Muscarinic acetylcholine receptor M1 (Homo sapiens) (UniProt P11229); assay: M1 (h) CEREP panel; details: Compound concentration 1.0 uM
[40] = target: Muscarinic acetylcholine receptor M3 (Homo sapiens) (UniProt P20309); assay: M3 (h) CEREP panel; details: Compound concentration 1.0 uM
[41] = organism: Rattus norvegicus; assay: AMPK(r) Millipore kinase panel; details: Compound concentration 10.0 uM
[42] = target: Proto-oncogene tyrosine-protein kinase ROS (Homo sapiens) (UniProt P08922); assay: Ros(h) Millipore kinase panel; details: Compound concentration 10.0 uM
Sequence of Proto-oncogene tyrosine-protein kinase ROS (Homo sapiens) (P08922 whole entry): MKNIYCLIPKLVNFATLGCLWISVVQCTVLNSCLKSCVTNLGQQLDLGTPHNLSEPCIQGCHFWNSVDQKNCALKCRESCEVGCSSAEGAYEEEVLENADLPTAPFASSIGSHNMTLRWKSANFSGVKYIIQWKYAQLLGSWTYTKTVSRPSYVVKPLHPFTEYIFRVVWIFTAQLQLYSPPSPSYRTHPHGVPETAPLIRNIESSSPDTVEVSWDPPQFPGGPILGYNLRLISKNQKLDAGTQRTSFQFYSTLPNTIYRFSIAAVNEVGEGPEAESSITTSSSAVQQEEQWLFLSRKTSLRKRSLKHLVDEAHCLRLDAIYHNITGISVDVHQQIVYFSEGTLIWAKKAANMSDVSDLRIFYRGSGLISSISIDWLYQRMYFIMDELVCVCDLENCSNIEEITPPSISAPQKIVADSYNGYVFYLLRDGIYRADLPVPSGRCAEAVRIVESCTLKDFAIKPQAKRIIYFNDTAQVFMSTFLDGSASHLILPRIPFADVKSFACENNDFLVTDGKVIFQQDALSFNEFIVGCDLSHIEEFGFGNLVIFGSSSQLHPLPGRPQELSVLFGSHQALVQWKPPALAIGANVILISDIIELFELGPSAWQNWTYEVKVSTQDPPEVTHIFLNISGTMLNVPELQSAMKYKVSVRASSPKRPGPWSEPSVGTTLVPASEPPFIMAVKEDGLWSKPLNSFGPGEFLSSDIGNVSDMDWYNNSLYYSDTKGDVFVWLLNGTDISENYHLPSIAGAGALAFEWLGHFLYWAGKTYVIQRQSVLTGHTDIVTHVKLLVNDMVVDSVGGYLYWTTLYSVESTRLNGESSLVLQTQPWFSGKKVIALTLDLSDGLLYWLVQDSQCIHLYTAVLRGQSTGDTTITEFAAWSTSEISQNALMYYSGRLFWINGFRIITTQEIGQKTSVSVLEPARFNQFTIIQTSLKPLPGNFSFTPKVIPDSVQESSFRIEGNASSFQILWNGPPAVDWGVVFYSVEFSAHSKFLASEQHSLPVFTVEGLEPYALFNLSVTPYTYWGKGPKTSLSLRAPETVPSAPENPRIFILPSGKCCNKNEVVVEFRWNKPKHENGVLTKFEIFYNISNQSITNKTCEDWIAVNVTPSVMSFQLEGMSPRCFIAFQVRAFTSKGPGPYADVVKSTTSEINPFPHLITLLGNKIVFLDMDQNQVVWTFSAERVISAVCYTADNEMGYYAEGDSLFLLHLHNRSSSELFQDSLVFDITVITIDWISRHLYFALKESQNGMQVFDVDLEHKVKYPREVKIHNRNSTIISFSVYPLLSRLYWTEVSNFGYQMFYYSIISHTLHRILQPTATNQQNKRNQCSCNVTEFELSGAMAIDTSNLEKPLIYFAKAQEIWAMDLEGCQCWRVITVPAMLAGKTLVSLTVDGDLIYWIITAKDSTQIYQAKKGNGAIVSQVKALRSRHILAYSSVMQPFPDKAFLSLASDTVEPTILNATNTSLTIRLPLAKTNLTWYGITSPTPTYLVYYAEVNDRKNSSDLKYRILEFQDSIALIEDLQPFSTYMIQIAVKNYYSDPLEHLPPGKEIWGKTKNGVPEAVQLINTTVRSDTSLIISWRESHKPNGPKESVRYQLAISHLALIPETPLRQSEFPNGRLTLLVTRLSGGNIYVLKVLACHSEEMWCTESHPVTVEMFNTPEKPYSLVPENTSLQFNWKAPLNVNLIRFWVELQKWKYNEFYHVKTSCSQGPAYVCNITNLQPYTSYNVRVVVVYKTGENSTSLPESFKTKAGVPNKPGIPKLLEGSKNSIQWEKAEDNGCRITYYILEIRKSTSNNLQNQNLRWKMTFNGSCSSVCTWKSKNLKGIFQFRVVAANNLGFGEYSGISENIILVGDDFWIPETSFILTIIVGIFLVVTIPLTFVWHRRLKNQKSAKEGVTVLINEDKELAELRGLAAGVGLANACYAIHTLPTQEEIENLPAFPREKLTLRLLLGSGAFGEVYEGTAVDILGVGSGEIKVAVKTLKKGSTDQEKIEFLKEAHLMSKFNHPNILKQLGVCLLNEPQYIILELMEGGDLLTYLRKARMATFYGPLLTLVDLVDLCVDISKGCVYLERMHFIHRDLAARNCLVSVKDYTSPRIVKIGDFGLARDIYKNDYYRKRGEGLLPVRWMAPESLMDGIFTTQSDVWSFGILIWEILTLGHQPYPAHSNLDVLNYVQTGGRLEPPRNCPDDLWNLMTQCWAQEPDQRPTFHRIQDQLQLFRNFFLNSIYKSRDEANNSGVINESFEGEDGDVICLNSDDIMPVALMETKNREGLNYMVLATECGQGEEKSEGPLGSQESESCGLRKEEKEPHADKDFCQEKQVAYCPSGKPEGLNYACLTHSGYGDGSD

[43] = SK+Ca channel CEREP panel; details: Compound concentration 1.0 uM
[44] = target: Adenosine receptor A2a (Homo sapiens) (UniProt P29274); assay: A2A (h) CEREP panel; details: Compound concentration 1.0 uM
[45] = target: Tyrosine-protein kinase CSK (Homo sapiens) (UniProt P41240); assay: CSK(h) Millipore kinase panel; details: Compound concentration 10.0 uM
[46] = target: Adrenergic receptor alpha-1 (Homo sapiens) (UniProt P35348+P25100+P35368); assay: alpha 1 (non-selective) CEREP panel; details: Compound concentration 1.0 uM
[47] = target: Serine/threonine-protein kinase Chk2 (Homo sapiens) (UniProt O96017); assay: CHK2(h) Millipore kinase panel; details: Compound concentration 10.0 uM
[48] = target: Serine/threonine-protein kinase Nek2 (Homo sapiens) (UniProt P51955); assay: NEK2(h) Millipore kinase panel; details: Compound concentration 10.0 uM
Sequence of Serine/threonine-protein kinase Nek2 (Homo sapiens) (P51955 whole entry): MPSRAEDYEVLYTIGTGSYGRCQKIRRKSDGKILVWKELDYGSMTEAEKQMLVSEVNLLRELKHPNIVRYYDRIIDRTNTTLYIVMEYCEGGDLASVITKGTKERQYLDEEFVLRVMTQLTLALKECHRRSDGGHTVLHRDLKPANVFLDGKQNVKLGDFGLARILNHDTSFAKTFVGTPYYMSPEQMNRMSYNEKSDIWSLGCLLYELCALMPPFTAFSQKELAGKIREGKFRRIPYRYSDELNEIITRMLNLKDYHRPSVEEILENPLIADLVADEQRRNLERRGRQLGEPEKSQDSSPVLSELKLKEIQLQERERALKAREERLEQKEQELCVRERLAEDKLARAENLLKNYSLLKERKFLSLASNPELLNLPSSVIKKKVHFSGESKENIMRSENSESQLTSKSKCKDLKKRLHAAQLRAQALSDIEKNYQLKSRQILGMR

[49] = target: Substance-K receptor (Homo sapiens) (UniProt P21452); assay: NK2 (h) CEREP panel; details: Compound concentration 1.0 uM
[50] = target: Angiopoietin-1 receptor (Homo sapiens) (UniProt Q02763); assay: Tie2(h) Millipore kinase panel; details: Compound concentration 10.0 uM

Sequence of Adenosine receptor A3 (Homo sapiens) (P0DMS8 whole entry): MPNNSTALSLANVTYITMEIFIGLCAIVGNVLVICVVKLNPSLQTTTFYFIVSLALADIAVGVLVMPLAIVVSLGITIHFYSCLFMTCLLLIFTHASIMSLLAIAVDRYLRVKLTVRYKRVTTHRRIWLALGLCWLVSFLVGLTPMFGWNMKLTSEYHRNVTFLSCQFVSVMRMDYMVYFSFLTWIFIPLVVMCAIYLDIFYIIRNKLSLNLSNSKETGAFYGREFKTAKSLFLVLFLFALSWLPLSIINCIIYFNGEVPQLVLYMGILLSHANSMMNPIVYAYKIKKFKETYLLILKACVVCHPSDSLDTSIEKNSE

inhibition [1]: < 10% | inhibition [2]: < 10% | inhibition [3]: 10% | inhibition [4]: < 10% | inhibition [5]: < 10% | inhibition [6]: -5% | inhibition [7]: 3% | inhibition [9]: 8% | inhibition [10]: -8% | inhibition [11]: < 10% | inhibition [12]: -6% | inhibition [13]: < 10% | inhibition [14]: -5% | inhibition [15]: 4% | inhibition [16]: < 10% | inhibition [17]: 7% | inhibition [18]: < 10% | inhibition [19]: 0% | inhibition [20]: 18% | inhibition [21]: < 10% | inhibition [22]: 1% | inhibition [23]: < 10% | inhibition [24]: 12% | inhibition [25]: < 10% | inhibition [26]: 23% | inhibition [27]: -2% | inhibition [28]: < 10% | inhibition [29]: -5% | inhibition [30]: < 10% | inhibition [31]: < 10% | inhibition [32]: -2% | inhibition [33]: -7% | inhibition [34]: -6% | inhibition [35]: -5% | inhibition [36]: -6% | inhibition [37]: < 10% | inhibition [38]: -4% | inhibition [39]: 19% | inhibition [40]: 64% | inhibition [41]: 1% | inhibition [42]: 6% | inhibition [43]: < 10% | inhibition [44]: < 10% | inhibition [45]: -9% | inhibition [46]: < 10% | inhibition [47]: 4% | inhibition [48]: -10% | inhibition [49]: < 10% | inhibition [50]: 12%
Structure (SMILES): CC(C)c1cc(N2CC[C@@H](N)C2)nc(N)n1
inhibition [8]: -3%
